Key:
[1] = Relaxivity (r1) by variable flip angle technique at 9.4 T; format: physicochemical
Experimental: (§1) While the liposomal contrast agent has slow clearance, Multihance® clears rapidly, and timing the image acquisition is critical. We therefore opted to use the DCE-MRI technique to collect a series of images, from which the optimal time point could be selected. DCE-MRI experiments were performed on a horizontal bore 9.4 T Bruker Avance III, 20 cm bore Biospec Spectrometer (Karlsruhe, Germany) with a micro-imaging probe capable of generating gradients of (1000 mT/m). Prior to the in vivo study, the relaxivity of both agents was measured using the variable flip angle technique described in Appendix A. Similarly, the baseline relaxation rates, T1(O), for placenta and fetus were measured using the same pulse sequence as described in Appendix A.

[2] = Placental and fetal contrast agent concentration and uptake from DCE-MRI data; format: in vivo, mouse
Description: The image data was used to calculate absolute Gd concentrations using the methods in Appendix A. Contrast agent concentrations estimated from the MRI data are shown in Table 2-2 using Eqs. A4 and A5.
For the DCE-MRI study, baseline images without contrast enhancement were acquired, followed by a series of images acquired over time during and after the arrival of the contrast agent in the tissue of interest. A 3D-spoiled gradient recalled echo (SPGRE) pulse sequence with a fixed flip angle of 16 degrees was used over 175 measurements. Other parameters are described in Appendix A. The time for a single measurement was 9.25 seconds. Two minutes into the experiment, contrast was injected. Total scan time was 26 minutes and 52 seconds. The acquired signal was used to generate a time-intensity curve and the signal was converted pixel-by-pixel into concentration of the injected agent.
MRI data was transferred to an offline workstation and each placental and fetal compartment was segmented as a separate region of interest (ROI) using AMIRA V5.6 software (FEI Visualization Sciences Group, Hillsboro, Oreg.). The segmented regions were transferred to Matlab (Matlab 7.6.0, MathWorks, Natick, Mass., USA) to create a pixel-by-pixel T1(0) map and T1(t) map as described in Appendix A. Two placental zones were identified visually from the signal enhancement pattern: the labyrinth zone characterized by early flow enhancement and a peripheral region (maternal decidua) characterized by late flow enhancement that began after the central labyrinth enhancement peaked. The two zones together constitute the entire placenta.

[3] = system: pregnant Balb/c mice; experiment: Blinded reader rating of placental visibility in DCE-MRI; format: in vivo, mouse
Experimental: The trans-placental permeability of liposomal gadolinium (Gd) nanoparticle contrast agents was evaluated in a pregnant mouse model. Pregnant Balb/c mice at 16.5 (±1) days of gestation were imaged using a 3D Spoiled Gradient Echo method at 9.4 T using two contrast agents: a clinically approved Gd chelate, Multihance® (gadobenate dimeglumine), and a novel experimental liposomal Gd agent. A Dynamic Contrast Enhancement (DCE) protocol was used to capture the dynamics of contrast entry and distribution in the placenta, and clearance from circulation. A blinded clinical radiologist evaluated both sets of images. A reference region model was used to measure the placental flow and physiological parameters; volume transfer constant (Ktrans), efflux rate constant (Kep). The Gd content of excised placentae and fetuses was measured, using inductively coupled plasma mass spectrometry (ICP-MS). […] Image interpretation and diagnostic quality was equivalent between the two contrast agents.
(§2) 25 female Balb/c mice (7-9 weeks old; average weight 26 grams before pregnancy) were used in this study. Animals were mated with same strain males. The day when a vaginal copulation plug was detected was designated as day 0.5. Pregnant mice were imaged at day 16.5±1. Mice were sacrificed (under the institutional euthanasia protocol) immediately after MRI data collection (except for two mice that received the liposomal Gd agent, and were maintained alive for 72 hours, allowing additional time for possible transport of Gd to the fetus, and then sacrificed). Mice were dissected and the placentae and fetuses removed and transferred individually to 2 ml polycarbonate vials for storage at −81° C. These placentae and fetuses were analyzed using ICP-MS for the direct measurement of Gd concentration.
Animals were anesthetized with 4% Isofluorane/air and transferred supine to the animal-imaging cradle. A 28-gauge catheter was placed in the tail vein. Once transferred to the imaging instrument, isofluorane (2%) was administered continuously via a nose cone. A pressure sensitive pillow was placed on the abdomen and taped in place to monitor respiration. The animal chamber of the imaging probe was maintained at around 30-33° C. The magnet room was maintained at 25-27° C. Heart rate was maintained at steady 50-60 beats-per-minute by adjusting the airflow and isofluorane concentration. MR imaging was performed with Multihance® in 14 mice. Liposomal Gd was used in 9 mice. Two mice were injected with saline as a control for comparison. Contrast agents were diluted to 20 mM and a dose of 0.08 mmol/kg (typically around 100 μL) were prepared for this study. The contrast agent was injected manually by the same operator (3 years of experience with small animals) and at the same rate in each mouse.
as §1
For the DCE-MRI study, baseline images without contrast enhancement were acquired, followed by a series of images acquired over time during and after the arrival of the contrast agent in the tissue of interest. A 3D-spoiled gradient recalled echo (SPGRE) pulse sequence with a fixed flip angle of 16 degrees was used over 175 measurements. Other parameters are described in Appendix A. The time for a single measurement was 9.25 seconds. […]

[4] = Gadolinium assay by ICP-MS of placentae and fetuses; format: in vivo, mouse
Experimental: as §2
Wet tissue from placentae or pups was chopped with a scalpel into ˜3 mm pieces. A known mass of chopped tissue was then dissolved in 2-4 ml of concentrated nitric acid (14N) and heated at 100° C. till tissue completely dissolved. (Usually, about 30-45 minutes at room temperature and 3 minutes at 100° C. were sufficient). The acid solution was diluted with 10 ml of DI water, causing some precipitation of organic material. The material was centrifuged at 3000 g for 5-10 minutes, and the supernatant used for analysis. Serial dilutions over a 10^6 range were then made, and spiked with an internal standard of Bi 10 parts per billion (ppb) in 2% nitric acid. ICP-MS analysis was conducted on a Varian 810 ICP-MS system, using the manufacturer's recommended protocol for Gd assay. A spike-recovery study on blank tissue yielded linear response with >90% recovery over a range of 0-900 ppb and >96% response over a range of 0-50 ppb.

[5] = system: pregnant Sprague Dawley rats; experiment: DCE-MRI visualization of the retroplacental space; format: in vivo, rat; settings: 0.15 mmol Gd/kg, 20 minute post-contrast acquisition
Experimental: In the study with the conventional Gd contrast agent, dynamic contrast enhanced MRI (DCE-MRI) was performed using gadoterate meglumine (Gd-DOTA, Dotarem®) to evaluate visualization of the retroplacental space. DCE-MRI was performed using a T1w 2D gradient echo sequence (GRE) sequence with the following scan parameters: TE=3.5 ms, TR=15 ms, FA=25, slice thickness=0.8 or 1.6 mm, NEX=12; temporal resolution=47 s. Four non-contrast, baseline images were acquired followed by bolus intravenous administration of gadoterate meglumine (0.15 mmol Gd/kg). Post-contrast imaging was continued for upto 20 minutes after administration of gadoterate meglumine. In order to directly compare image quality between the two contrast agents, liposomal-Gd contrast agent (0.15 mmol Gd/kg) was administered a minimum of three hours later, allowing clearance of gadoterate meglumine. Post-liposomal-Gd contrast images were acquired using the same DCE-MRI protocol.
Pre-contrast and post-contrast scans were reviewed by a trained maternal-fetal radiologist (˜10 years of experience). T1 weighted GRE images and T2 weighted FSE images were included in the review. […] The visibility of target features in T1w and T2w images were scored by the radiologist on a 3-point scale: 0=not visible, 1=partly visible and 2=clearly visible. […]

[6] = placentae rated by blinded reader, 5-point scale, 9.4 T

| Structure (SMILES) | relaxivity (r1) [1] | uptake of contrast agent in the fetal compartment ([2]; MRI, liposomal Gd even after 72 hr exposure) | Placental concentration ([2]; gadolinium peak from MRI data, mean, ROI around entire placenta, 0.08 mmol/kg) | Fetal concentration ([2]; gadolinium peak from MRI data, mean, ROI around fetal sac, 0.08 mmol/kg) | time of image intensity peak after injection ([3]; DCE-MRI) | Number observed with Placenta Visibility 1 [3, 6] | Number observed with Placenta Visibility 2 [3, 6] | Number observed with Placenta Visibility 3 [3, 6] | Number observed with Placenta Visibility 4 [3, 6] | Number observed with Placenta Visibility 5 [3, 6] | Gd concentration in placentae and fetuses versus detection limit ([4]; 45 minutes and 90 minutes post injection, detection limit 0.318 nmol/g tissue) | Placental and fetal Gd concentrations relative to each other ([4]; 45 minutes post-injection) | Placental and fetal Gd concentrations, factor of each other ([4]; 90 minutes post-injection) | transplacental permeation ([4]; MRI images and ICP-MS analyses of placental and fetal tissue) | visualization of the retroplacental space [5] |
| --- | --- | --- | --- | --- | --- | --- | --- | --- | --- | --- | --- | --- | --- | --- | --- |
| CNC[C@H](O)[C@@H](O)[C@H](O)[C@H](O)CO.CNC[C@H](O)[C@@H](O)[C@H](O)[C@H](O)CO.O=C([O-])CN(CCN(CC(=O)[O-])CC(=O)O)CCN(CC(=O)O)C(COCc1ccccc1)C(=O)[O-].[Gd+3] (stereo not drawn) [Multihance, gadobenate dimeglumine] | 3.99 ± 0.52 s/mM | uptake of contrast agent in the fetal compartment was observed | 0.60 ± 0.51 µmol/L | 0.027 ± 0.01 µmol/L | 11 to 15 s | 1 | 6 | 25 | 15 | 7 | above the detection limit | within an order of magnitude of each other | ≤ 2 | avidly permeated the placental barrier | – |
| CNC[C@H](O)[C@@H](O)[C@H](O)[C@H](O)CO.O=C([O-])CN1CCN(CC(=O)[O-])CCN(CC(=O)O)CCN(CC(=O)[O-])CC1.[Gd+3] [gadoterate meglumine] | – | – | – | – | – | – | – | – | – | – | – | – | – | – | no consistent and reproducible visualization of the retroplacental space |

From US11052162B2, “Liposomal gadolinium (GD) contrast agent “NMRX” for T1-MRI” (TEXAS CHILDREN'S HOSPITAL, priority 2016, dated 2021)
